Assay results reported in patent US7144982B2, “Polypeptides with therapeutic activity and methods of use” (University of Minnesota, priority 2000, dated 2006).
Read-outs that look alike come from different tables or passages of the source. Ends that are not written are not given here.

Columns and labels:
Human red blood cells = type: cell-based; details: red cells of human, 1 h
Description: Human red blood cells were washed three times using phosphate buffered saline (PBS: 35 mM phosphate buffer, 0.15 M NaCl, pH 7.0) prior to performing the assay. One hundred μL of human red blood cells suspended in 0.4% (v/v) PBS was placed in eppendorf tubes, and 100 μL of serially diluted peptides in PBS was added (peptide concentration ranged from 1 μM to 100 μM). Tubes were incubated for 1 hr at 37° C. and centrifuged at 1000 g for 5 min. One hundred μL aliquots of the supernatant was then transferred to eppendorf tubes, and hemolysis was measured by absorbance at 414 nm. Zero percentage hemolysis and 100% hemolysis were determined in PBS and in 1% Triton-X 100, respectively. The hemolysis percentage was calculated using the following formula: % hemolysis=[(A414 in the peptide solution−A414 in PBS)/(A414 in 1% Triton-X 100−A414 in PBS)]×100.

E. coli J5 = experiment: Bactericidal assay, rough strain E. coli J5; type: cell-based; details: Table 4; SC-4 variants; SD about ±30%
Text: (§1) Pseudomonas aeruginosa type 1 is a clinical, smooth strain isolate serotyped by using the scheme of Homma, Japan. J. Exp. Med. 46, 329–336 (1976) and maintained in the lab by monthly transfer on blood agar plates. E. coli J96, IA2, and H5 are smooth strain, uropathogenic clinical isolates kindly maintained and provided by J. R. Johnson and described in Johnson et al., J. Infect. Disease 173, 920–926 (1996) for J96 and IA2 and in Johnson et al., J. Infect. Disease 173, 746–749 (1996) for H5. J5 is an E. coli rough strain initially referenced by G. R. Siber and discussed in Warren et al., Infect. Immunity 55, 1668–1673 (1987) and is analogous to the smooth strain E. coli 0111:B4 used in the BioWhittaker LAL endotoxin detection and quantitation kit described below. Gram-positive MN8 and MNHO are two patient isolates of Staphylococcus aureus, which were kindly provided by P. M. Schlievert and described in Bohach et al., Rev. Infect. Diseases 11, 75–82 (1989) for MNHO and in Schlievert et al., J. Infect. Diseases 147, 236–242 (1983) for MN8. All cultures are maintained on nutrient agar plates.
(§2) Pyrogen-free solutions were used throughout the assay. Log phase bacteria were obtained by transferring an overnight culture or scraping crystals off −85° C. glycerol stocks of overnight cultures. Bacteria were washed and resuspended in 0.9% sodium chloride with adjustment to an optical density at 650 nm which yields 3×10^8 CFU/ml. Bacteria were then diluted 1:10 in 0.08 M citrate phosphate buffer, pH 7.0 (prepared by mixing 0.08 M citric acid with 0.08 M dibasic sodium phosphate). Bacteria (0.15 ml) were incubated with peptide in a final volume of 1.0 ml of buffer. The assay was done in 17×100 polypropylene tubes in a reciprocal water bath shaker at 37° C. for 30 minutes. Following this 30 minute (min) incubation, 10-fold dilutions were made in 0.9% sodium chloride. Dilutions were done to 10^−4 and 20 μl of each dilution was streaked across an agar plate. Gram-positive organisms were plated on nutrient agar plates containing 2% agar and Gram-negative organisms were plated on MacConkey agar (2%). Plates were incubated overnight at 37° C. and counted the next morning. The dilution containing 10–100 bacteria was counted and the number multiplied by 50 to adjust all counts to the number bacteria killed per milliliter. Peptide concentrations were converted to logarithm base ten and graphed. Bactericidal activity was determined by dose response where LD50 values were determined by best fits of a sigmoidal curve to the dose response data.

[1] = tested on: Pseudomonas aeruginosa type 1; experiment: Bactericidal assay, P. aeruginosa (P.a.); type: cell-based; details: Table 4; SC-4 variants; SD about ±30%
Text: as §1, §2

[2] = tested on: Staphylococcus aureus MNHO; experiment: Bactericidal assay, Gram-positive S. aureus MNHO; type: cell-based; details: Table 4; SC-4 variants; SD about ±30%
Text: as §1, §2

E. coli 055:B5 LPS = experiment: Limulus amoebocyte lysate assay for LPS neutralization; type: biochemical; details: for IC50: Table 4, SC-4 variants, SD about ±30%, read-out: LPS neutralization IC50; for drop in LPS neutralizing activity relative to SC-4: SC-3: relative to either SC-4 or SC-5
Text: The ability of synthetic peptides to neutralize endotoxin was detected using the chromogenic QCL-1000 kit from BioWhittaker, Inc. (Walkersville, Md.) as described in their protocol. This method is quantitative for Gram-negative bacterial endotoxin (lipopolysaccharide, LPS). In the Limulus amebocyte lysate (LAL) assay, peptides that are active inhibit the LPS-mediated activation of a proenzyme (Young et al., J. Clin. Invest. 51, 1790–1797 (1972)) whose active form would release p-nitroaniline (pNA) from a colorless synthetic substrate (Ac-Ile-Glu-Ala-Arg-pNA), producing a yellow color (pNA) whose absorption is monitored spectrophotometrically at 405–410 nm. The initial rate of enzyme activation is proportional to the concentration of endotoxin present. The concentration of peptide required to bind to LPS and therefore to inhibit the Limulus amoebocyte lysate driven by 0.04 unit (or 0.01 ng) of E. coli 055:B5 LPS (from SIGMA) was determined by dose response.

| Substance | hemolysis (Human red blood cells; 1e-4 M) | hemolysis (Human red blood cells; 1e-6 M) | LD50 bactericidal activity, Gram-neg. rough J5 (E. coli J5) | LD50 bactericidal activity, Gram-neg. smooth P.a. [1] | LD50 bactericidal activity, Gram-positive MNHO [2] | LPS neutralization in words (E. coli 055:B5 LPS) | IC50 (E. coli 055:B5 LPS) [µM] | drop in LPS neutralizing activity relative to SC-4 (E. coli 055:B5 LPS) |
| --- | --- | --- | --- | --- | --- | --- | --- | --- |
| LKWKIIVKLNDG-NH2 [SC-6, LKWKIIVKLNDG] | ~15% |  |  |  |  |  |  |  |
| KRHLKWKIIVKL-NH2 [SC-5, KRHLKWKIIVKL] | around 70% | 15-30% |  |  |  |  |  |  |
| ANIKLSVQMKLFKRHLKWKIIVKLNDGRELSLD-NH2 [βpep-25, reference compound] | about 5% |  |  |  |  |  |  |  |
| KIIVKLNDGREL-NH2 [SC-7, KIIVKLNDGREL] | ~15% |  |  |  |  |  |  |  |
| K L F K X H L K W K I I-NH2 [SC-409] |  |  | 0.001 10^−6 M | 0.22 10^−6 M | 0.3 10^−6 M | nearly full activity | 3 |  |
| MKLFKRHLKWKIIV [SC-403, M K L F K R H L K W K I I V-NH2] |  |  | 0.002 10^−6 M | 0.05 10^−6 M | 0.4 10^−6 M |  | 6 |  |
| K L F K K H L K W K I I-NH2 [SC-408] |  |  | 0.003 10^−6 M | 0.07 10^−6 M | 2 10^−6 M | does not affect LPS binding | 1000 | about 500 fold |
| VKLNDGRELSLD-NH2 [SC-8, VKLNDGRELSLD] | ~10% |  |  |  |  |  |  |  |
| K L F X R H L K W K I I-NH2 [SC-405] |  |  | 0.006 10^−6 M | 0.17 10^−6 M | 0.4 10^−6 M |  | 7 | about 3 fold |
| X L F K R H L K W K I I-NH2 [SC-404] |  |  | 0.004 10^−6 M | 0.22 10^−6 M | 1 10^−6 M |  | 7 | about 3 fold |
